Data taken from ChEMBL document CHEMBL3046509, “Synthesis and structure--activity relationships of substituted cinnamic acids and amide analogues: a new class of herbicides” (2009).

What was measured:
Experiment in all cases: whole plant or invertebrate
Format in all cases: functional
Conditions in all cases: Raphanus sativus, Japanese White, 120 h
[1] = tested on: Radish
Description: Herbicidal activity against Raphanus sativus var.Japanese White (radish) assessed as inhibition of seed germination at 200 ppm at 25 degC measured after 5 days

[2] = tested on: Radish; remark: listed apart in the source
Description: Herbicidal activity against Raphanus sativus var.Japanese White (radish) assessed as inhibition of seed germination at 50 ppm at 25 degC measured after 5 days

[3] = tested on: Radish; remark: listed apart in the source
Description: Herbicidal activity against Raphanus sativus var.Japanese White (radish) assessed as inhibition of seed germination at 100 ppm at 25 degC measured after 5 days

SMILES	inhibition at 200 ppm [1]	inhibition at 50 ppm [2]	inhibition at 100 ppm [3]
COc1ccc(/C=C/C(=O)Nc2ccccc2Cl)cc1	96.7%	76.7%	83.3%
O=C(/C=C/c1ccccc1[N+](=O)[O-])Nc1ccc([N+](=O)[O-])cc1 [4-NITRO-(2'-NITRO)CINNAMANILIDE]	96.7%	73.3%	86.7%
O=C(/C=C/c1cccc(Cl)c1)Nc1ccccc1 [3-CHLORO-CINNAMANILIDE]	100%	70%	93.3%
O=C(O)/C=C/c1ccc(O)cc1 [COUMARIC ACID]	100%	53.3%	73.3%
Cc1ccc(NC(=O)/C=C/c2ccccc2[N+](=O)[O-])cc1 [4-METHYL-(2'-NITRO)CINNAMANILIDE]	93.3%	63.3%	80%
O=C(O)/C=C/c1cccc([N+](=O)[O-])c1 [3-NITRO-CINNAMIC ACID]	100%	70.3%	80%
O=C(/C=C/c1cccc([N+](=O)[O-])c1)Nc1ccccc1 [3-NITRO-CINNAMANILIDE]	100%	70%	73.3%
O=C(/C=C/c1ccc([N+](=O)[O-])cc1)Nc1ccccc1 [4-NITRO-CINNAMANILIDE]	100%	83.3%	90%
O=C(/C=C/c1cccc(Cl)c1)Nc1ccccc1Cl	76.7%	33.3%	53.3%
O=C(/C=C/c1cccc([N+](=O)[O-])c1)Nc1ccccc1Cl	100%	83.3%	93.3%
O=C(/C=C/c1ccc([N+](=O)[O-])cc1)Nc1ccc([N+](=O)[O-])cc1 [4-NITRO-(4'-NITRO)CINNAMANILIDE]	93.3%	60%	66.7%
O=C(O)/C=C/c1ccccc1[N+](=O)[O-]	100%	70%	86.7%
COc1ccc(/C=C/C(=O)O)cc1 [4-METHOXYCINNAMIC ACID]	93.3%	56.7%	66.7%
O=C(/C=C/c1ccc([N+](=O)[O-])cc1)Nc1ccccc1Cl	100%	80%	86.7%
O=C(/C=C/c1ccccc1[N+](=O)[O-])Nc1ccccc1Cl	100%	86.7%	93.3%
CSc1nnc(C(C)(C)C)c(=O)n1N [METRIBUZIN]	100%	80%	93.3%
O=C(/C=C/c1cccc(O)c1)Nc1ccccc1Cl	93.3%	56.7%	80%
O=C(O)/C=C/c1ccc([N+](=O)[O-])cc1	96.7%	70%	93.3%
O=C(O)/C=C/c1cccc(O)c1	100%	56.7%	86.7%
Cc1ccc(NC(=O)/C=C/c2cccc([N+](=O)[O-])c2)cc1 [4-METHYL-(3'-NITRO)CINNAMANILIDE]	96.7%	73.3%	86.7%
O=C(/C=C/c1ccccc1[N+](=O)[O-])Nc1ccccc1	100%	73.3%	86.7%
COc1ccc(/C=C/C(=O)Nc2ccc(C)cc2)cc1	100%	70%	93.3%
O=C(/C=C/c1cccc(O)c1)Nc1ccccc1 [3-HYDROXY-CINNAMANILIDE]	100%	53.3%	86.7%
COc1ccc(/C=C/C(=O)Nc2ccccc2)cc1 [4-METHOXY-CINNAMANILIDE]	93.3%	53.3%	76.7%
Cc1ccc(NC(=O)/C=C/c2cccc(Cl)c2)cc1 [4-METHYL-(3'-CHLORO)CINNAMANILIDE]	93.3%	70%	83.3%
O=C(O)/C=C/c1cccc(Cl)c1 [3-CHLORO-CINNAMIC ACID]	93.3%	53.3%	76.7%
